Laboratory results from patent US8415469B2, “Compounds and methods for kinase modulation, and indications therefor” (Plexxikon Inc., priority 2005, dated 2013).

How the values were obtained:
Format in all cases: biochemical
c-Raf-1 = biological target: T1, c-Raf-1 (Homo sapiens, UniProt P04049); assay: AlphaScreen kinase assay, c-Raf-1; details: read-out: IC50, activity toward kinase c-Raf-1
T1 construct: purchased Upstate Biotechnology

Flt1 = biological target: T2, Flt1 (Homo sapiens, UniProt P17948); assay: AlphaScreen kinase assay, Flt1; details: read-out: IC50, activity toward kinase Flt1
T2 construct: P1826.pETN6 BI-PTP FLT1 M799-D1165-X WT; His6 (N); made in house; host or cells: E. coli (PTP1B co-expressed)
T2 sequence (P17948 with tags, fused parts or gaps): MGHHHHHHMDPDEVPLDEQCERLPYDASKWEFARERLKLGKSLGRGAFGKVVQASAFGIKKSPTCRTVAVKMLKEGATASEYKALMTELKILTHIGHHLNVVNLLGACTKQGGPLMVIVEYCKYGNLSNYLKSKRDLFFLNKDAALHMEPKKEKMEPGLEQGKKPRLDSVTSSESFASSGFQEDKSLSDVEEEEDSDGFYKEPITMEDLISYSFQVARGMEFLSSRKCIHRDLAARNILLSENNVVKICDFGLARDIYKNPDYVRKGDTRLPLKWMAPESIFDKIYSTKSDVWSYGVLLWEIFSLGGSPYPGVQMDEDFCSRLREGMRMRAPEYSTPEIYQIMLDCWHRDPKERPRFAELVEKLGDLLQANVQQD

Jnk1 = biological target: T3, Jnk1 (Homo sapiens, UniProt P45983); assay: AlphaScreen kinase assay, Jnk1; details: read-out: IC50, activity toward kinase Jnk1
T3 construct: purchased Upstate Biotechnology

Jnk3 = biological target: T4, Jnk3 (Homo sapiens, UniProt P53779); assay: AlphaScreen kinase assay, Jnk3; details: read-out: IC50, activity toward kinase Jnk3
T4 construct: purchased Upstate Biotechnology

Src = biological target: T5, Src (Homo sapiens, UniProt P12931); assay: AlphaScreen kinase assay, Src; details: read-out: IC50, activity toward kinase Src
T5 construct: P1144. pET-N6 BI-PTP SRC V86-L536-X; made in house

Akt3 = Akt3 (Homo sapiens, UniProt Q9Y243); assay: AlphaScreen kinase assay, Akt3; details: read-out: IC50, activity toward kinase Akt3
In short: (§1)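 Stock 20 mM compound in DMSO, diluted 1:3 serially to 8 final concentrations. Kinase phosphorylates biotinylated peptide; donor (streptavidin) and acceptor (anti-phospho antibody) beads then associate. Reduced acceptor emission indicates inhibition.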

Abl = biological target: T6, Abl (Homo sapiens, UniProt P00519); assay: AlphaScreen kinase assay, Abl; details: read-out: activity toward kinase Abl, IC50
T6 construct: P1121. pET-SPEC BI-PTP Abl G227-V515-X; His6 (N); made in house; host or cells: E. coli (PTP1B co-expressed)
T6 sequence (P00519 with tags, fused parts or gaps): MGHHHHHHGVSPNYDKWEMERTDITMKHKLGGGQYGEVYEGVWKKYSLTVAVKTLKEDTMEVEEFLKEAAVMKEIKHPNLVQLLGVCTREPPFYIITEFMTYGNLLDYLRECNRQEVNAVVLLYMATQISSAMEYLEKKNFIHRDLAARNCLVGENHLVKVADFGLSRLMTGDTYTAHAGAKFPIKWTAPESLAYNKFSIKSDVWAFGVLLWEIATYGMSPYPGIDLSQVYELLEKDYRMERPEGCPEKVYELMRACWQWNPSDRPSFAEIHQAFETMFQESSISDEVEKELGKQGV
In short: as §1

Chain of Akt3 (Q9Y243 whole entry): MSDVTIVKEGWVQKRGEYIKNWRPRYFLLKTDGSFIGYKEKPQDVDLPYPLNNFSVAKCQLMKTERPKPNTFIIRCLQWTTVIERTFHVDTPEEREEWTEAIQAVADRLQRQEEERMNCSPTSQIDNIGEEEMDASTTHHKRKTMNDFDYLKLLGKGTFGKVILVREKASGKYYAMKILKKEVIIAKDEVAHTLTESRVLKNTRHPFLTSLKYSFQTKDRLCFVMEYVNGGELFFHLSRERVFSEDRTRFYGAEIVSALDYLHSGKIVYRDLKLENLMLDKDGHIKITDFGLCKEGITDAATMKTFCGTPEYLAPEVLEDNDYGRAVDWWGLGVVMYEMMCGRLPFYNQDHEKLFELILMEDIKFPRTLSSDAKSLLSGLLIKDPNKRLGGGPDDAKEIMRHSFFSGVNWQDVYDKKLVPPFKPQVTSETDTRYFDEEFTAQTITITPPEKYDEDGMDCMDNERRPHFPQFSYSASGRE
T4 sequence (P53779 whole entry): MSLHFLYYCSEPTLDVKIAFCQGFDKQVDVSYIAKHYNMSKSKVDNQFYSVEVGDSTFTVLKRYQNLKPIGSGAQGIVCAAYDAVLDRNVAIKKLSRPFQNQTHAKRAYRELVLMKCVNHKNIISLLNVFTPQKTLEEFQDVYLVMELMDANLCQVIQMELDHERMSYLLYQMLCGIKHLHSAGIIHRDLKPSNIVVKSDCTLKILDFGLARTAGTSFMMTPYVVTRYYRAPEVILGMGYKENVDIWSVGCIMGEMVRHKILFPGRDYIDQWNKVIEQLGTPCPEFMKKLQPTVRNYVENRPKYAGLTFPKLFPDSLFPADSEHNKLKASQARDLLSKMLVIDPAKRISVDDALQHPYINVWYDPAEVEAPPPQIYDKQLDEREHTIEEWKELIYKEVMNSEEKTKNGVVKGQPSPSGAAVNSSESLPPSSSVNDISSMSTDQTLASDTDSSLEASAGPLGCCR
T5 sequence (P12931 with tags, fused parts or gaps): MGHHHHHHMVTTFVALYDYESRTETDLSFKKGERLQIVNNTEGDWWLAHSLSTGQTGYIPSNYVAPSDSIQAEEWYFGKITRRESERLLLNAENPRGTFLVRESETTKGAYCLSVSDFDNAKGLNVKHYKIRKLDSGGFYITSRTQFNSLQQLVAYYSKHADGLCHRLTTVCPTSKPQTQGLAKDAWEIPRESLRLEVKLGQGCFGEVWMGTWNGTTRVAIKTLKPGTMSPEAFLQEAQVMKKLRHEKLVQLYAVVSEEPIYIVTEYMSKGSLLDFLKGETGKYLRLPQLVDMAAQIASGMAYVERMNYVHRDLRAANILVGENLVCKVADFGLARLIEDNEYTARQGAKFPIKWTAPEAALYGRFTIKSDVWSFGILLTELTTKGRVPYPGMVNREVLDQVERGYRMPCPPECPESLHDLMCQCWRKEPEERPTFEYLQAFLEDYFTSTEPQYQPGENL
T1 sequence (P04049 whole entry): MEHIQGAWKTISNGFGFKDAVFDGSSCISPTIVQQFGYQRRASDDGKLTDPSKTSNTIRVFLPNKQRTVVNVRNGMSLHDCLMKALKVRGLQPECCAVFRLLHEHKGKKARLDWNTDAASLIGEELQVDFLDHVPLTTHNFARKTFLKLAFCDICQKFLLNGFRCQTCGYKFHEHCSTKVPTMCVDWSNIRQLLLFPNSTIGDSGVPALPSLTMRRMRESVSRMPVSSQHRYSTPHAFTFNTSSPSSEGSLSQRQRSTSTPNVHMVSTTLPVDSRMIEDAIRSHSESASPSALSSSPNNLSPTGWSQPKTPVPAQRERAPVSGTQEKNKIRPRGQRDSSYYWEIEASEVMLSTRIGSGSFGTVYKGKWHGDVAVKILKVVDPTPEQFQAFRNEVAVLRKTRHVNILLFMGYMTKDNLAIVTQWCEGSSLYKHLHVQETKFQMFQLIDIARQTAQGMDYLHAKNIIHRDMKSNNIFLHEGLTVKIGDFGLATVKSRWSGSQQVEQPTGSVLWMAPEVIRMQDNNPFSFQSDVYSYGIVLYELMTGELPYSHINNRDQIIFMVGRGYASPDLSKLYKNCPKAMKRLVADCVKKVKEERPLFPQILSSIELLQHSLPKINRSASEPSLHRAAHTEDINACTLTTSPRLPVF
T3 sequence (P45983 whole entry): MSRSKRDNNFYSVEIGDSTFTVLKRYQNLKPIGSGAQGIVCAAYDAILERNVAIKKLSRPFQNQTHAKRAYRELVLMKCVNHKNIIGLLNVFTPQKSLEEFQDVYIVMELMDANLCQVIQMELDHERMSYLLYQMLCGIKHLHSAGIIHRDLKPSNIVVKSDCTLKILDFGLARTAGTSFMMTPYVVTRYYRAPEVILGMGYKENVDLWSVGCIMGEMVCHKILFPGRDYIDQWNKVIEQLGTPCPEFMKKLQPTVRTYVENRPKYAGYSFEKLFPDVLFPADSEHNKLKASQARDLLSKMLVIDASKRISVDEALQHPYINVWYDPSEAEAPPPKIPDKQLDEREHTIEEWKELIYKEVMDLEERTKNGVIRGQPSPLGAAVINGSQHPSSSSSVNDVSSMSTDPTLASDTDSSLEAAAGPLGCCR

Row | IC50 (c-Raf-1) | IC50 (Flt1) | IC50 (Jnk1) | IC50 (Jnk3) | IC50 (Src) | IC50 (Akt3) | IC50 (Abl) | SMILES
1 | ≤ 10 µM | ≤ 10 µM | ≤ 10 µM | ≤ 10 µM | ≤ 10 µM | – | – | Oc1ccc(F)c(C(O)c2c[nH]c3ncc(-c4cccnc4)cc23)c1F (stereo not drawn) [Compound P-0009, 2,4-difluoro-3-[hydroxy-(5-pyridin-3-yl-1H-pyrrolo[2,3-b]pyridin-3-yl)-methyl]-phenol]
2 | ≤ 10 µM | – | ≤ 10 µM | ≤ 10 µM | – | – | – | COc1ccc(C(=O)c2c[nH]c3ncc(-c4cccc(/C=C/C(=O)O)c4)cc23)c(Cl)c1 [Compound P-0015]
3 | ≤ 10 µM | ≤ 10 µM | ≤ 10 µM | ≤ 10 µM | ≤ 10 µM | – | – | Cc1c(O)cccc1C(=O)c1c[nH]c2ncc(-c3ccccc3)cc12 [Compound P-0016, (3-Hydroxy-2-methyl-phenyl)-(5-phenyl-1H-pyrrolo[2,3b]pyridin-3-yl)-methanone]
4 | ≤ 10 µM | ≤ 10 µM | ≤ 10 µM | ≤ 10 µM | ≤ 10 µM | ≤ 10 µM | – | O=C(c1cccc(O)c1F)c1c[nH]c2ncc(-c3cccnc3)cc12 [Compound P-0027, (2-Fluoro-3-hydroxy-phenyl)-(5-pyridin-3-yl-1H-pyrrolo[2,3-b]pyridin-3-yl)-methanone]
5 | – | – | – | – | ≤ 10 µM | – | ≤ 10 µM | Cc1ccc(F)cc1C(=O)c1c[nH]c2ncc(-c3cccc(NS(C)(=O)=O)c3)cc12 [Compound P-0028]
6 | – | ≤ 10 µM | ≤ 10 µM | ≤ 10 µM | – | – | ≤ 10 µM | O=C(O)/C=C/c1cccc(-c2cnc3[nH]cc(C(=O)c4ccccc4F)c3c2)c1 [Compound P-0033]
7 | ≤ 10 µM | ≤ 10 µM | ≤ 10 µM | ≤ 10 µM | ≤ 10 µM | ≤ 10 µM | – | NC(=O)c1cccc(-c2cnc3[nH]cc(C(=O)c4cccc(O)c4F)c3c2)c1 [Compound P-0034, 3-[3-(2-Fluoro-3-hydroxy-benzoyl)-1H-pyrrolo[2,3-b]pyridin-5-yl]benzamide]
8 | ≤ 10 µM | – | ≤ 10 µM | ≤ 10 µM | ≤ 10 µM | ≤ 10 µM | – | CC(=O)Nc1cccc(-c2cnc3[nH]cc(C(=O)c4cccc(O)c4F)c3c2)c1 [Compound P-0035, N-{3-[3-(2-Fluoro-3-hydroxy-benzoyl)-1H-pyrrolo[2,3-b]pyridin-5-yl]-phenyl}-acetamide]
9 | ≤ 10 µM | ≤ 10 µM | ≤ 10 µM | ≤ 10 µM | ≤ 10 µM | ≤ 10 µM | – | O=C(c1cccc(O)c1F)c1c[nH]c2ncc(-c3ccccc3)cc12 [Compound P-0036, (2-fluoro-3-hydroxy-phenyl)-(5-phenyl-1H-pyrrolo[2,3-b]pyridin-3-yl)-methanone]
10 | ≤ 10 µM | ≤ 10 µM | ≤ 10 µM | ≤ 10 µM | ≤ 10 µM | ≤ 10 µM | – | CS(=O)(=O)Nc1cccc(-c2cnc3[nH]cc(C(=O)c4cccc(O)c4F)c3c2)c1 [Compound P-0038, N-{3-[3-(2-Fluoro-3-hydroxy-benzoyl)-1H-pyrrolo[2,3-b]pyridin-5-yl]-phenyl}-methanesulfonamide]
11 | – | – | – | – | – | – | ≤ 10 µM | Cc1ccc(F)cc1C(=O)c1c[nH]c2ncc(-c3ccc(C(N)=O)cc3)cc12 [Compound P-0050]
12 | ≤ 10 µM | – | ≤ 10 µM | ≤ 10 µM | – | – | – | Oc1cccc(Cc2c[nH]c3ncc(-c4cccs4)cc23)c1F [Compound P-0052, 2-Fluoro-3-(5-thiophen-2-yl-1H-pyrrolo[2,3-b]pyridin-3-ylmethyl)-phenol]
13 | – | ≤ 10 µM | ≤ 10 µM | ≤ 10 µM | – | – | ≤ 10 µM | Oc1cccc(Cc2c[nH]c3ncc(-c4ccsc4)cc23)c1 [Compound P-0056]
14 | – | ≤ 10 µM | – | – | ≤ 10 µM | ≤ 10 µM | – | O=C(c1cccc(O)c1F)c1c[nH]c2ncc(Br)cc12 [Compound P-0067, (5-bromo-1H-pyrrolo[2,3-b]pyridin-3-yl)-(2-fluoro-3-hydroxy-phenyl)-methanone]
15 | – | ≤ 10 µM | – | – | ≤ 10 µM | – | ≤ 10 µM | O=C(c1cc(O)ccc1F)c1c[nH]c2ncc(Br)cc12 [Compound P-0068, (5-Bromo-1H-pyrrolo[2,3-b]pyridin-3-yl)-(2-fluoro-5-hydroxy-phenyl)-methanone]
16 | – | ≤ 10 µM | – | – | ≤ 10 µM | – | ≤ 10 µM | Cc1ccc(S(=O)(=O)NCc2c[nH]c3nccc(-c4cccc(C#N)c4)c23)cc1 [Compound P-0072]
17 | ≤ 10 µM | ≤ 10 µM | ≤ 10 µM | ≤ 10 µM | ≤ 10 µM | – | – | Oc1ccc(F)c(Cc2c[nH]c3ncc(-c4cccnc4)cc23)c1F [Compound P-0078, 2,4-difluoro-3-(5-pyridin-3-yl-1H-pyrrolo[2,3-b]pyridin-3-ylmethyl)-phenol]
18 | ≤ 10 µM | ≤ 10 µM | ≤ 10 µM | – | ≤ 10 µM | – | – | Cc1c(NS(C)(=O)=O)cccc1C(=O)c1c[nH]c2ncc(-c3ccccc3)cc12 [Compound P-0082, N-[2-Methyl-3-(5-phenyl-1H-pyrrolo[2,3-b]pyridine-3-carbonyl)-phenyl]-methanesulfonamide]
19 | ≤ 10 µM | ≤ 10 µM | ≤ 10 µM | ≤ 10 µM | ≤ 10 µM | – | – | CCCS(=O)(=O)Nc1ccc(F)c(C(=O)c2c[nH]c3ncc(-c4cccnc4)cc23)c1F [Compound P-0088, Propane-1-sulfonic acid [2,4-difluoro-3-(5-pyridin-3-yl-1H-pyrrolo[2,3-b]pyridine-3-carbonyl)-phenyl]-amide]
20 | – | ≤ 10 µM | – | – | – | – | – | OC(c1c(F)ccc(F)c1F)c1c[nH]c2ncc(-c3cccnc3)cc12 (stereo not drawn) [Compound P-0101]
21 | ≤ 10 µM | – | ≤ 10 µM | ≤ 10 µM | ≤ 10 µM | – | – | CS(=O)(=O)c1cccc(-c2cnc3[nH]cc(C(=O)c4c(F)ccc(F)c4F)c3c2)c1 [Compound P-0102, [5-(3-Methanesulfonyl-phenyl)-1H-pyrrolo[2,3-b]pyridin-3-yl]-(2,3,6-trifluoro-phenyl)-methanone]
22 | ≤ 10 µM | ≤ 10 µM | ≤ 10 µM | ≤ 10 µM | ≤ 10 µM | ≤ 10 µM | – | Cc1c(O)cccc1C(=O)c1c[nH]c2ncc(-c3cccs3)cc12 [Compound P-0114, (3-Hydroxy-2-methyl-phenyl)-(5-thiophen-2-yl-1H-pyrrolo[2,3b]pyridin-3-yl)-methanone]
23 | ≤ 10 µM | – | – | ≤ 10 µM | – | ≤ 10 µM | – | Oc1ccc(F)c(Cc2c[nH]c3ncc(Br)cc23)c1F [Compound P-0122, 3-(5-Bromo-1H-pyrrolo[2,3-b]pyridin-3-ylmethyl)-2,4-difluoro-phenol]
24 | ≤ 10 µM | ≤ 10 µM | – | ≤ 10 µM | ≤ 10 µM | – | – | CN(C)S(=O)(=O)Nc1ccc(F)c(Cc2c[nH]c3ncc(-c4cccnc4)cc23)c1F [Compound P-0166]
25 | – | – | – | – | ≤ 10 µM | – | – | CS(=O)(=O)c1cccc(-c2ccnc3[nH]cc(C(=O)c4cc(F)ccc4F)c23)c1 [Compound P-0171]
26 | ≤ 10 µM | – | – | – | – | – | – | O=C(Nc1ccc(Cc2c[nH]c3ncccc23)cc1)Nc1cccc(C(F)(F)F)c1 [Compound P-0262, 1-[4-(1H-Pyrrolo[2,3-b]pyridin-3-ylmethyl)-phenyl]-3-(3-trifluoromethyl-phenyl)-urea]
27 | ≤ 10 µM | ≤ 10 µM | ≤ 10 µM | ≤ 10 µM | – | – | – | CCCS(=O)(=O)Nc1ccc(F)c(C(=O)c2c[nH]c3ncc(-c4ccccc4)cc23)c1F [Compound P-0636, Propane-1-sulfonic acid [2,4-difluoro-3-(5-phenyl-1H-pyrrolo[2,3-b]pyridine-3-carbonyl)-phenyl]-amide]
28 | – | – | ≤ 10 µM | ≤ 10 µM | ≤ 10 µM | – | – | CCCC(=O)Nc1ccc(F)c(Cc2c[nH]c3ncc(-c4cccnc4)cc23)c1F [Compound P-1280]
29 | – | ≤ 10 µM | – | – | – | – | ≤ 10 µM | COc1cc(OC)cc(C(=O)c2c[nH]c3ncc(-c4cccc(NS(C)(=O)=O)c4)cc23)c1 [Compound P-1426, N-{3-[3-(3,5-Dimethoxy-benzoyl)-1H-pyrrolo[2,3-b]pyridin-5-yl]-phenyl}-methanesulfonamide]
